Data: the NIST ThermoML archive (doi:10.1021/acs.jced.5b00051)
± gives the expanded uncertainty stated by the source.

Assay: molar heat capacity at constant pressure
Conditions: 307.15 K; 101.33 kPa; Liquid; Large sample (1 g) DSC
In the case of `CCCCCCOCCOCCO` [2-(2-hexyloxyethoxy)ethanol], the “molar heat capacity at constant pressure” value is reported as 425.1 ± 6.6 J/K/mol.
With `CCCCOCCO` [2-butoxyethan-1-ol] the “molar heat capacity at constant pressure” value was 277.5 ± 4.3 J/K/mol.
For `COCCOCCO` [2-(2-methoxyethoxy)ethanol], the “molar heat capacity at constant pressure” value was 269.8 ± 4.2 J/K/mol.
For `CCOCCO` [2-ethoxyethan-1-ol], the “molar heat capacity at constant pressure” value was 214.3 ± 3.3 J/K/mol.
In the case of `COCCOCCOCCO` [2-[2-(2-methoxyethoxy)ethoxy]ethanol], the “molar heat capacity at constant pressure” value is reported as 358.6 ± 5.6 J/K/mol.

Same assay, conditions: 309.15 K; 101.33 kPa; Liquid; Large sample (1 g) DSC
In the case of `CCCCCCOCCOCCO` [2-(2-hexyloxyethoxy)ethanol], the “molar heat capacity at constant pressure” value is reported as 426 ± 6.6 J/K/mol.
In the case of `CCCCOCCO` [2-butoxyethan-1-ol], the “molar heat capacity at constant pressure” value is reported as 278.5 ± 4.3 J/K/mol.
In the case of `COCCOCCO` [2-(2-methoxyethoxy)ethanol], the “molar heat capacity at constant pressure” value is reported as 270.4 ± 4.2 J/K/mol.
For `CCOCCO` [2-ethoxyethan-1-ol], the “molar heat capacity at constant pressure” value was 215 ± 3.3 J/K/mol.
For `COCCOCCOCCO` [2-[2-(2-methoxyethoxy)ethoxy]ethanol], the “molar heat capacity at constant pressure” value was 359.1 ± 5.6 J/K/mol.

Same assay, conditions: 311.15 K; 101.33 kPa; Liquid; Large sample (1 g) DSC
With `CCCCCCOCCOCCO` [2-(2-hexyloxyethoxy)ethanol] the “molar heat capacity at constant pressure” value was 427 ± 6.6 J/K/mol.
With `CCCCOCCO` [2-butoxyethan-1-ol] the “molar heat capacity at constant pressure” value was 279.5 ± 4.3 J/K/mol.
For `COCCOCCO` [2-(2-methoxyethoxy)ethanol], the “molar heat capacity at constant pressure” value was 271 ± 4.2 J/K/mol.
For `CCOCCO` [2-ethoxyethan-1-ol], the “molar heat capacity at constant pressure” value was 215.7 ± 3.3 J/K/mol.
With `COCCOCCOCCO` [2-[2-(2-methoxyethoxy)ethoxy]ethanol] the “molar heat capacity at constant pressure” value was 359.6 ± 5.6 J/K/mol.

Same assay, conditions: 313.15 K; 101.33 kPa; Liquid; Large sample (1 g) DSC
With `CCCCCCOCCOCCO` [2-(2-hexyloxyethoxy)ethanol] the “molar heat capacity at constant pressure” value was 428 ± 6.6 J/K/mol.
With `CCCCOCCO` [2-butoxyethan-1-ol] the “molar heat capacity at constant pressure” value was 280.5 ± 4.3 J/K/mol.
In the case of `COCCOCCO` [2-(2-methoxyethoxy)ethanol], the “molar heat capacity at constant pressure” value is reported as 271.6 ± 4.2 J/K/mol.
For `CCOCCO` [2-ethoxyethan-1-ol], the “molar heat capacity at constant pressure” value was 216.5 ± 3.4 J/K/mol.
In the case of `COCCOCCOCCO` [2-[2-(2-methoxyethoxy)ethoxy]ethanol], the “molar heat capacity at constant pressure” value is reported as 360.1 ± 5.6 J/K/mol.

Same assay, conditions: 315.15 K; 101.33 kPa; Liquid; Large sample (1 g) DSC
For `CCCCCCOCCOCCO` [2-(2-hexyloxyethoxy)ethanol], the “molar heat capacity at constant pressure” value was 428.9 ± 6.6 J/K/mol.
With `CCCCOCCO` [2-butoxyethan-1-ol] the “molar heat capacity at constant pressure” value was 281.5 ± 4.4 J/K/mol.
In the case of `COCCOCCO` [2-(2-methoxyethoxy)ethanol], the “molar heat capacity at constant pressure” value is reported as 272.2 ± 4.2 J/K/mol.
In the case of `CCOCCO` [2-ethoxyethan-1-ol], the “molar heat capacity at constant pressure” value is reported as 217.2 ± 3.4 J/K/mol.
With `COCCOCCOCCO` [2-[2-(2-methoxyethoxy)ethoxy]ethanol] the “molar heat capacity at constant pressure” value was 360.6 ± 5.6 J/K/mol.

Same assay, conditions: 317.15 K; 101.33 kPa; Liquid; Large sample (1 g) DSC
For `CCCCCCOCCOCCO` [2-(2-hexyloxyethoxy)ethanol], the “molar heat capacity at constant pressure” value was 429.9 ± 6.7 J/K/mol.
In the case of `CCCCOCCO` [2-butoxyethan-1-ol], the “molar heat capacity at constant pressure” value is reported as 282.5 ± 4.4 J/K/mol.
In the case of `COCCOCCO` [2-(2-methoxyethoxy)ethanol], the “molar heat capacity at constant pressure” value is reported as 272.8 ± 4.2 J/K/mol.
For `CCOCCO` [2-ethoxyethan-1-ol], the “molar heat capacity at constant pressure” value was 218 ± 3.4 J/K/mol.
For `COCCOCCOCCO` [2-[2-(2-methoxyethoxy)ethoxy]ethanol], the “molar heat capacity at constant pressure” value was 361.2 ± 5.6 J/K/mol.

Same assay, conditions: 319.15 K; 101.33 kPa; Liquid; Large sample (1 g) DSC
For `CCCCCCOCCOCCO` [2-(2-hexyloxyethoxy)ethanol], the “molar heat capacity at constant pressure” value was 430.9 ± 6.7 J/K/mol.
With `CCCCOCCO` [2-butoxyethan-1-ol] the “molar heat capacity at constant pressure” value was 283.5 ± 4.4 J/K/mol.
In the case of `COCCOCCO` [2-(2-methoxyethoxy)ethanol], the “molar heat capacity at constant pressure” value is reported as 273.4 ± 4.2 J/K/mol.
In the case of `CCOCCO` [2-ethoxyethan-1-ol], the “molar heat capacity at constant pressure” value is reported as 218.7 ± 3.4 J/K/mol.
For `COCCOCCOCCO` [2-[2-(2-methoxyethoxy)ethoxy]ethanol], the “molar heat capacity at constant pressure” value was 361.7 ± 5.6 J/K/mol.

Same assay, conditions: 321.15 K; 101.33 kPa; Liquid; Large sample (1 g) DSC
With `CCCCCCOCCOCCO` [2-(2-hexyloxyethoxy)ethanol] the “molar heat capacity at constant pressure” value was 431.9 ± 6.7 J/K/mol.
In the case of `CCCCOCCO` [2-butoxyethan-1-ol], the “molar heat capacity at constant pressure” value is reported as 284.5 ± 4.4 J/K/mol.
With `COCCOCCO` [2-(2-methoxyethoxy)ethanol] the “molar heat capacity at constant pressure” value was 274 ± 4.2 J/K/mol.
For `CCOCCO` [2-ethoxyethan-1-ol], the “molar heat capacity at constant pressure” value was 219.5 ± 3.4 J/K/mol.
With `COCCOCCOCCO` [2-[2-(2-methoxyethoxy)ethoxy]ethanol] the “molar heat capacity at constant pressure” value was 362.2 ± 5.6 J/K/mol.

Same assay, conditions: 323.15 K; 101.33 kPa; Liquid; Large sample (1 g) DSC
In the case of `CCCCCCOCCOCCO` [2-(2-hexyloxyethoxy)ethanol], the “molar heat capacity at constant pressure” value is reported as 432.9 ± 6.7 J/K/mol.
For `CCCCOCCO` [2-butoxyethan-1-ol], the “molar heat capacity at constant pressure” value was 285.5 ± 4.4 J/K/mol.
For `COCCOCCO` [2-(2-methoxyethoxy)ethanol], the “molar heat capacity at constant pressure” value was 274.7 ± 4.3 J/K/mol.
In the case of `CCOCCO` [2-ethoxyethan-1-ol], the “molar heat capacity at constant pressure” value is reported as 220.2 ± 3.4 J/K/mol.
For `COCCOCCOCCO` [2-[2-(2-methoxyethoxy)ethoxy]ethanol], the “molar heat capacity at constant pressure” value was 362.8 ± 5.6 J/K/mol.

Same assay, conditions: 325.15 K; 101.33 kPa; Liquid; Large sample (1 g) DSC
In the case of `CCCCCCOCCOCCO` [2-(2-hexyloxyethoxy)ethanol], the “molar heat capacity at constant pressure” value is reported as 433.9 ± 6.7 J/K/mol.
In the case of `CCCCOCCO` [2-butoxyethan-1-ol], the “molar heat capacity at constant pressure” value is reported as 286.5 ± 4.4 J/K/mol.
For `COCCOCCO` [2-(2-methoxyethoxy)ethanol], the “molar heat capacity at constant pressure” value was 275.3 ± 4.3 J/K/mol.
In the case of `CCOCCO` [2-ethoxyethan-1-ol], the “molar heat capacity at constant pressure” value is reported as 221 ± 3.4 J/K/mol.
In the case of `COCCOCCOCCO` [2-[2-(2-methoxyethoxy)ethoxy]ethanol], the “molar heat capacity at constant pressure” value is reported as 363.4 ± 5.6 J/K/mol.

Same assay, conditions: 327.15 K; 101.33 kPa; Liquid; Large sample (1 g) DSC
With `CCCCCCOCCOCCO` [2-(2-hexyloxyethoxy)ethanol] the “molar heat capacity at constant pressure” value was 434.9 ± 6.7 J/K/mol.
With `CCCCOCCO` [2-butoxyethan-1-ol] the “molar heat capacity at constant pressure” value was 287.5 ± 4.5 J/K/mol.
For `COCCOCCO` [2-(2-methoxyethoxy)ethanol], the “molar heat capacity at constant pressure” value was 276 ± 4.3 J/K/mol.
In the case of `CCOCCO` [2-ethoxyethan-1-ol], the “molar heat capacity at constant pressure” value is reported as 221.8 ± 3.4 J/K/mol.
In the case of `COCCOCCOCCO` [2-[2-(2-methoxyethoxy)ethoxy]ethanol], the “molar heat capacity at constant pressure” value is reported as 364 ± 5.6 J/K/mol.

Same assay, conditions: 329.15 K; 101.33 kPa; Liquid; Large sample (1 g) DSC
For `CCCCCCOCCOCCO` [2-(2-hexyloxyethoxy)ethanol], the “molar heat capacity at constant pressure” value was 436 ± 6.8 J/K/mol.
With `CCCCOCCO` [2-butoxyethan-1-ol] the “molar heat capacity at constant pressure” value was 288.5 ± 4.5 J/K/mol.
With `COCCOCCO` [2-(2-methoxyethoxy)ethanol] the “molar heat capacity at constant pressure” value was 276.6 ± 4.3 J/K/mol.
For `CCOCCO` [2-ethoxyethan-1-ol], the “molar heat capacity at constant pressure” value was 222.6 ± 3.4 J/K/mol.
For `COCCOCCOCCO` [2-[2-(2-methoxyethoxy)ethoxy]ethanol], the “molar heat capacity at constant pressure” value was 364.5 ± 5.6 J/K/mol.

Same assay, conditions: 331.15 K; 101.33 kPa; Liquid; Large sample (1 g) DSC
With `CCCCCCOCCOCCO` [2-(2-hexyloxyethoxy)ethanol] the “molar heat capacity at constant pressure” value was 437 ± 6.8 J/K/mol.
In the case of `CCCCOCCO` [2-butoxyethan-1-ol], the “molar heat capacity at constant pressure” value is reported as 289.6 ± 4.5 J/K/mol.
For `COCCOCCO` [2-(2-methoxyethoxy)ethanol], the “molar heat capacity at constant pressure” value was 277.3 ± 4.3 J/K/mol.
With `CCOCCO` [2-ethoxyethan-1-ol] the “molar heat capacity at constant pressure” value was 223.3 ± 3.5 J/K/mol.
With `COCCOCCOCCO` [2-[2-(2-methoxyethoxy)ethoxy]ethanol] the “molar heat capacity at constant pressure” value was 365.1 ± 5.7 J/K/mol.

Same assay, conditions: 333.15 K; 101.33 kPa; Liquid; Large sample (1 g) DSC
With `CCCCCCOCCOCCO` [2-(2-hexyloxyethoxy)ethanol] the “molar heat capacity at constant pressure” value was 438 ± 6.8 J/K/mol.
For `CCCCOCCO` [2-butoxyethan-1-ol], the “molar heat capacity at constant pressure” value was 290.6 ± 4.5 J/K/mol.
With `COCCOCCO` [2-(2-methoxyethoxy)ethanol] the “molar heat capacity at constant pressure” value was 278 ± 4.3 J/K/mol.
For `CCOCCO` [2-ethoxyethan-1-ol], the “molar heat capacity at constant pressure” value was 224.1 ± 3.5 J/K/mol.
With `COCCOCCOCCO` [2-[2-(2-methoxyethoxy)ethoxy]ethanol] the “molar heat capacity at constant pressure” value was 365.8 ± 5.7 J/K/mol.

Same assay, conditions: 335.15 K; 101.33 kPa; Liquid; Large sample (1 g) DSC
In the case of `CCCCCCOCCOCCO` [2-(2-hexyloxyethoxy)ethanol], the “molar heat capacity at constant pressure” value is reported as 439.1 ± 6.8 J/K/mol.
For `CCCCOCCO` [2-butoxyethan-1-ol], the “molar heat capacity at constant pressure” value was 291.6 ± 4.5 J/K/mol.
In the case of `COCCOCCO` [2-(2-methoxyethoxy)ethanol], the “molar heat capacity at constant pressure” value is reported as 278.7 ± 4.3 J/K/mol.
For `CCOCCO` [2-ethoxyethan-1-ol], the “molar heat capacity at constant pressure” value was 224.9 ± 3.5 J/K/mol.
With `COCCOCCOCCO` [2-[2-(2-methoxyethoxy)ethoxy]ethanol] the “molar heat capacity at constant pressure” value was 366.4 ± 5.7 J/K/mol.

Same assay, conditions: 337.15 K; 101.33 kPa; Liquid; Large sample (1 g) DSC
With `CCCCCCOCCOCCO` [2-(2-hexyloxyethoxy)ethanol] the “molar heat capacity at constant pressure” value was 440.2 ± 6.8 J/K/mol.
In the case of `CCCCOCCO` [2-butoxyethan-1-ol], the “molar heat capacity at constant pressure” value is reported as 292.6 ± 4.5 J/K/mol.
For `COCCOCCO` [2-(2-methoxyethoxy)ethanol], the “molar heat capacity at constant pressure” value was 279.4 ± 4.3 J/K/mol.
For `CCOCCO` [2-ethoxyethan-1-ol], the “molar heat capacity at constant pressure” value was 225.7 ± 3.5 J/K/mol.
In the case of `COCCOCCOCCO` [2-[2-(2-methoxyethoxy)ethoxy]ethanol], the “molar heat capacity at constant pressure” value is reported as 367 ± 5.7 J/K/mol.

Same assay, conditions: 339.15 K; 101.33 kPa; Liquid; Large sample (1 g) DSC
With `CCCCCCOCCOCCO` [2-(2-hexyloxyethoxy)ethanol] the “molar heat capacity at constant pressure” value was 441.2 ± 6.8 J/K/mol.
With `CCCCOCCO` [2-butoxyethan-1-ol] the “molar heat capacity at constant pressure” value was 293.6 ± 4.5 J/K/mol.
With `COCCOCCO` [2-(2-methoxyethoxy)ethanol] the “molar heat capacity at constant pressure” value was 280.1 ± 4.3 J/K/mol.
For `CCOCCO` [2-ethoxyethan-1-ol], the “molar heat capacity at constant pressure” value was 226.5 ± 3.5 J/K/mol.
In the case of `COCCOCCOCCO` [2-[2-(2-methoxyethoxy)ethoxy]ethanol], the “molar heat capacity at constant pressure” value is reported as 367.6 ± 5.7 J/K/mol.
